Data as given in patent US10154957B2, “Microneedle device having a peptide therapeutic agent and an amino acid and methods of making and using the same” (3M INNOVATIVE PROPERTIES COMPANY, priority 2011, dated 2018).
Marks after values point to notes of the source that are not given here.

Experiment: Percent purity of PTHrP analogue in coating with varying His-HCl concentration, three storage conditions (HPLC)
Format: physicochemical
Conditions: peptide 10 mg/mL in PBS
Method: The protein or polypeptide content in the formulation coated on the microneedle arrays was determined using an Agilent 1100 HPLC system (Agilent Technologies, Wilmington, Del.) equipped with a binary pump, well-plated thermostated autosampler, thermostated column compartment, and a diode array UV detector. A Zorbax 300SB-C8 column (Agilent Technologies, Wilmington, Del.) having a 5 μm particle size and 2.1×150 mm inner diameter was used for the separations. The column was maintained at 50° C. The mobile phase consisted of two eluents. Eluent A was 0.1% TFA (trifluoroacetic acid) in water and eluent B was 0.1% TFA in acetonitrile (Spectrum Chemical, New Brunswick, N.J.). A linear gradient from 80/20 to 50/50 (A/B) was applied over 30 minutes. The flow rate was 0.4 mL/minute and the UV detection wavelength was set at 214 nm. The total run time was 34 minutes and the sample injection volume was 15 μL.
Five sample formulations were prepared containing 10 mg/mL of [Glu^22,25,Leu^23,28,31,Aib^29,Lys^26,30]hPTHrP(1-34)NH2 and varying concentrations of L-histidine monohydrochloride (His-HCl) in PBS. The concentrations of His-HCl in the sample formulations range from 1 mg/mL to 10 mg/mL. A control formulation was also prepared containing 10 mg/mL of [Glu^22,25,Leu^23,28,31,Aib^29,Lys^26,30]hPTHrP(1-34)NH2 in PBS. […] Microneedle arrays were coated with either the sample or the control formulations. The coating was applied by dropwise addition of 40 μL of the formulation to the portion of the array defined by the octagon shaped pattern of microneedles. The flood coated arrays (both sample and control formulation coated) were dried in an oven at 35° C. for 1.5 hours followed by 30° C. for 15 hours.
After drying, the coated arrays were placed in a storage chamber that was maintained at one of three storage conditions: 40° C./96% RH (storage condition A); 25° C./60% RH (storage condition B); or 5° C./ambient RH. The [Glu^22,25,Leu^23,28,31,Aib^29,Lys^26,30]hPTHrP(1-34)NH2 content of the coated arrays was determined following storage in a chamber for 1 day, 3 days, 7 days, 14 days, 21 days, 28 days, and 2 months. The initial [Glu^22,25,Leu^23,28,31,Aib^29,Lys^26,30]hPTHrP(1-34)NH2 content was also determined using freshly coated arrays (both sample and control formulation coated). The arrays used to determine initial content were stored in a refrigerator at about 4° C. and analyzed within one day of being prepared. At the designated time point, an array was taken from the chamber and washed with PBS (3.5 mL) to remove the coating from the array. An aliquot of the resulting wash solution was analyzed for [Glu^22,25,Leu^23,28,31,Aib^29,Lys^26,30]hPTHrP(1-34)NH2 content using the HPLC method described above. The results were quantified against an external standard of [Glu^22,25,Leu^23,28,31,Aib^29,Lys^26,30]hPTHrP(1-34)NH2. At each time point, the percent purity of [Glu^22,25,Leu^23,28,31,Aib^29,Lys^26,30]hPTHrP(1-34)NH2 in the coating was determined by measuring the peak area for [Glu^22,25,Leu^23,28,31,Aib^29,Lys^26,30]hPTHrP(1-34)NH2 in the selected coating and dividing it by the total peak area measured for all [Glu^22,25,Leu^23,28,31,Aib^29,Lys^26,30]hPTHrP(1-34)NH2 related peaks.

With “[Glu^22,25,Leu^23,28,31,Aib^29,Lys^26,30]hPTHrP(1-34)NH2” the “Percent Purity of [Glu^22,25, Leu^23,28,31, Aib^29, Lys^26,30]hPTHrP(1-34)NH2” value (from here on “Percent Purity”) (Histidine-HCl 1 mg/mL, Storage Condition B (25° C./60% RH), 2 months) was 98.1%, the “Percent Purity” value (Histidine-HCl 1 mg/mL, Storage Condition B (25° C./60% RH), Day 3) was 98.7% and the “Percent Purity” value (Histidine-HCl 1 mg/mL, Storage Condition B (25° C./60% RH), Day 7) was 98.8%. The “Percent Purity” value (Histidine-HCl 1 mg/mL, Storage Condition B (25° C./60% RH), Day 14) was 98.7%, the “Percent Purity” value (Histidine-HCl 1 mg/mL, Storage Condition B (25° C./60% RH), Day 28) was 98.8% and the “Percent Purity” value (Histidine-HCl 1 mg/mL, Storage Condition B (25° C./60% RH), Initial) was 99.0%. For the same substance, the “Percent Purity” value (Histidine-HCl 2 mg/mL, Storage Condition A (40° C./96% RH), Day 1) was 98.4%, the “Percent Purity” value (Histidine-HCl 2 mg/mL, Storage Condition A (40° C./96% RH), Day 3) was 97.5% and the “Percent Purity” value (Histidine-HCl 2 mg/mL, Storage Condition A (40° C./96% RH), Day 7) was 83.2%. For the same substance, the “Percent Purity” value (Histidine-HCl 2 mg/mL, Storage Condition A (40° C./96% RH), Day 14) was 50.0%, the “Percent Purity” value (Histidine-HCl 2 mg/mL, Storage Condition A (40° C./96% RH), Day 21, the sample for analysis contained insoluble impurities) was 36.8^(a) percent and the “Percent Purity” value (Histidine-HCl 2 mg/mL, Storage Condition A (40° C./96% RH), Initial) was 99.0%. For the same substance, the “Percent Purity” value (Histidine-HCl 2 mg/mL, Storage Condition B (25° C./60% RH), 2 months) was 98.1%, the “Percent Purity” value (Histidine-HCl 2 mg/mL, Storage Condition B (25° C./60% RH), Day 3) was 98.8% and the “Percent Purity” value (Histidine-HCl 2 mg/mL, Storage Condition B (25° C./60% RH), Day 7) was 98.8%. The “Percent Purity” value (Histidine-HCl 2 mg/mL, Storage Condition B (25° C./60% RH), Day 14) was 98.8%, the “Percent Purity” value (Histidine-HCl 2 mg/mL, Storage Condition B (25° C./60% RH), Day 28) was 98.9% and the “Percent Purity” value (Histidine-HCl 2 mg/mL, Storage Condition B (25° C./60% RH), Initial) was 99.0%. The “Percent Purity” value (Histidine-HCl 3.3 mg/mL, Storage Condition A (40° C./96% RH), Day 1) was 98.6%, the “Percent Purity” value (Histidine-HCl 3.3 mg/mL, Storage Condition A (40° C./96% RH), Day 3) was 97.8% and the “Percent Purity” value (Histidine-HCl 3.3 mg/mL, Storage Condition A (40° C./96% RH), Day 7) was 93.5%. The “Percent Purity” value (Histidine-HCl 3.3 mg/mL, Storage Condition A (40° C./96% RH), Day 14) was 58.3%, the “Percent Purity” value (Histidine-HCl 3.3 mg/mL, Storage Condition A (40° C./96% RH), Day 21, the sample for analysis contained insoluble impurities) was 78.2^(a) percent and the “Percent Purity” value (Histidine-HCl 3.3 mg/mL, Storage Condition A (40° C./96% RH), Initial) was 99.3%. For the same substance, the “Percent Purity” value (Histidine-HCl 3.3 mg/mL, Storage Condition B (25° C./60% RH), 2 months) was 98.5%, the “Percent Purity” value (Histidine-HCl 3.3 mg/mL, Storage Condition B (25° C./60% RH), Day 3) was 98.9% and the “Percent Purity” value (Histidine-HCl 3.3 mg/mL, Storage Condition B (25° C./60% RH), Day 7) was 98.8%. For the same substance, the “Percent Purity” value (Histidine-HCl 3.3 mg/mL, Storage Condition B (25° C./60% RH), Day 14) was 98.9%, the “Percent Purity” value (Histidine-HCl 3.3 mg/mL, Storage Condition B (25° C./60% RH), Day 28) was 98.8% and the “Percent Purity” value (Histidine-HCl 3.3 mg/mL, Storage Condition B (25° C./60% RH), Initial) was 99.3%. The “Percent Purity” value (Histidine-HCl 5 mg/mL, Storage Condition A (40° C./96% RH), Day 1) was 98.7%, the “Percent Purity” value (Histidine-HCl 5 mg/mL, Storage Condition A (40° C./96% RH), Day 3) was 97.5% and the “Percent Purity” value (Histidine-HCl 5 mg/mL, Storage Condition A (40° C./96% RH), Day 7) was 92.0%. For the same substance, the “Percent Purity” value (Histidine-HCl 5 mg/mL, Storage Condition A (40° C./96% RH), Day 14) was 65.1%, the “Percent Purity” value (Histidine-HCl 5 mg/mL, Storage Condition A (40° C./96% RH), Day 21, the sample for analysis contained insoluble impurities) was 33.8^(a) percent and the “Percent Purity” value (Histidine-HCl 5 mg/mL, Storage Condition A (40° C./96% RH), Initial) was 99.0%. The “Percent Purity” value (Histidine-HCl 5 mg/mL, Storage Condition B (25° C./60% RH), 2 months) was 98.4%, the “Percent Purity” value (Histidine-HCl 5 mg/mL, Storage Condition B (25° C./60% RH), Day 3) was 98.9% and the “Percent Purity” value (Histidine-HCl 5 mg/mL, Storage Condition B (25° C./60% RH), Day 7) was 98.9%. For the same substance, the “Percent Purity” value (Histidine-HCl 5 mg/mL, Storage Condition B (25° C./60% RH), Day 14) was 98.9%, the “Percent Purity” value (Histidine-HCl 5 mg/mL, Storage Condition B (25° C./60% RH), Day 28) was 98.8% and the “Percent Purity” value (Histidine-HCl 5 mg/mL, Storage Condition B (25° C./60% RH), Initial) was 99.0%. For the same substance, the “Percent Purity” value (Histidine-HCl 10 mg/mL, Storage Condition A (40° C./96% RH), Day 1) was 98.7%, the “Percent Purity” value (Histidine-HCl 10 mg/mL, Storage Condition A (40° C./96% RH), Day 3) was 98.5% and the “Percent Purity” value (Histidine-HCl 10 mg/mL, Storage Condition A (40° C./96% RH), Day 7) was 97.7%. For the same substance, the “Percent Purity” value (Histidine-HCl 10 mg/mL, Storage Condition A (40° C./96% RH), Day 14) was 94.9%, the “Percent Purity” value (Histidine-HCl 10 mg/mL, Storage Condition A (40° C./96% RH), Day 21) was 80.8% and the “Percent Purity” value (Histidine-HCl 10 mg/mL, Storage Condition A (40° C./96% RH), Initial) was 99.0%. The “Percent Purity” value (Histidine-HCl 10 mg/mL, Storage Condition B (25° C./60% RH), Day 3) was 98.9%, the “Percent Purity” value (Histidine-HCl 10 mg/mL, Storage Condition B (25° C./60% RH), Day 7) was 98.9% and the “Percent Purity” value (Histidine-HCl 10 mg/mL, Storage Condition B (25° C./60% RH), Day 14) was 98.8%. For the same substance, the “Percent Purity” value (Histidine-HCl 10 mg/mL, Storage Condition B (25° C./60% RH), Initial) was 99.0%, the “Percent Purity” value (Histidine-HCl none, Storage Condition B (25° C./60% RH), 2 months) was 96.3% and the “Percent Purity” value (Histidine-HCl none, Storage Condition B (25° C./60% RH), Day 3) was 97.9%. For the same substance, the “Percent Purity” value (Histidine-HCl none, Storage Condition B (25° C./60% RH), Day 7) was 98.0%, the “Percent Purity” value (Histidine-HCl none, Storage Condition B (25° C./60% RH), Day 14) was 97.7% and the “Percent Purity” value (Histidine-HCl none, Storage Condition B (25° C./60% RH), Day 28) was 97.5%. For the same substance, the “Percent Purity” value (Histidine-HCl none, Storage Condition B (25° C./60% RH), Initial) was 98.7%.
